Results as given in PMC10193574 (ACS Omega, 2023).
Values after ≈ are worked out from the molar mass of the structure shown. Like-named read-outs stand apart in the source and are kept apart here.

Tests used:
MRSA (ATCC43300) = experiment: Antibacterial MIC, broth growth inhibition OD600; format: cell-based, Staphylococcus aureus; settings: MIC = ≥80% growth inhibition
E. coli (ATCC25922) = experiment: Antibacterial MIC, broth growth inhibition OD600; format: cell-based, Escherichia coli; settings: for MIC: Escherichia coli, ATCC25922, read-out: MIC Ec
[1] = test system: P. aeruginosa (ATCC27853); experiment: Antibacterial MIC, broth growth inhibition OD600; format: cell-based, Pseudomonas aeruginosa
A. baumannii (ATCC19606) = experiment: Antibacterial MIC, broth growth inhibition OD600; format: cell-based, Acinetobacter baumannii
C. albicans (ATCC90028) = experiment: Antifungal MIC, growth inhibition; format: cell-based; settings: Candida albicans
[2] = test system: C. neoformans (ATCC 208821); experiment: Antifungal MIC, growth inhibition; format: cell-based; settings: Cryptococcus neoformans, ATCC208821, read-out: MIC Cn
[3] = test system: E. coli, K. pneumoniae, P. aeruginosa, A. baumannii, MRSA, C. albicans, C. neoformans; experiment: Antibacterial and antifungal MIC panel; format: cell-based
[4] = ATCC90028, read-out: MIC Ca, MIC = ≥80% growth inhibition

Q: With `COc1cc2c(=O)c(C(=O)NCCNCCO)cn(Cc3ccccc3)c2cc1OCc1cccc(F)c1` [Compound 42, 1-Benzyl-7-[(3-fluorobenzyl)oxy]-N-{2-[(2-hydroxyethyl)amino]ethyl}-6-methoxy-4-oxo-1,4-dihydroquinoline-3-carboxamide] as the compound, how does the “MIC MRSa” value (MRSA (ATCC43300)) read?
A: >32 mg/L

Q: What about the MIC (E. coli (ATCC25922)) of the same compound?
A: < 0.25 mg/L

Q: And the MIC ([1]; Pseudomonas aeruginosa, ATCC27853, read-out: MIC Pa)?
A: < 0.25 mg/L

Q: And the MIC (A. baumannii (ATCC19606); Acinetobacter baumannii, ATCC19606, read-out: MIC Ab)?
A: < 0.25 mg/L

Q: And the MIC (C. albicans (ATCC90028); ATCC90028, read-out: MIC Ca)?
A: > 32 mg/L

Q: And the MIC [2]?
A: < 0.25 mg/L

Q: For colistin [reference compound], which “MIC Ec” value (E. coli (ATCC25922); MIC = ≥80% growth inhibition) is on record?
A: 0.12 mg/L

Q: What about the “MIC Pa” value ([1]; MIC = ≥80% growth inhibition) of the same compound?
A: 0.25 mg/L

Q: And the “MIC Ab” value (A. baumannii (ATCC19606); MIC = ≥80% growth inhibition)?
A: 0.25 mg/L

Q: What about the “MIC against Gram-negative bacteria (summary)” value [3] of the same compound?
A: 0.1 to 0.25 mg/L

Q: How did the MIC (C. albicans (ATCC90028); [4]) turn out when `OC(Cn1cncn1)(Cn1cncn1)c1ccc(F)cc1F` [fluconazole, reference compound] was run?
A: 0.125 mg/L (≈ 0.408 µM)

Q: Which results are given for `CCn1cc(C(=O)NCCNCCO)c(=O)c2cc(OC)c(OCc3cc(F)cc(F)c3)cc21` [Compound 43, 7-[(3,5-Difluorobenzyl)oxy]-1-ethyl-N-{2-[(2-hydroxyethyl)amino]ethyl}-6-methoxy-4-oxo-1,4-dihydroquinoline-3-carboxamide]?
A: MIC MRSa (MRSA (ATCC43300)): >32 mg/L; MIC (E. coli (ATCC25922)): < 0.25 mg/L; MIC (C. albicans (ATCC90028); [4]): > 32 mg/L
